Molecules are shown by their SMILES.

In this assay the target is human Gal-3 (hGal-3) (Homo sapiens (Human), UniProt P17931). The assay is described as follows: competitive binding assay: binding of biotinylated hGal-3 to microplate-adsorbed asialofetuin (ASF), spectrophotometric. The settings on record: Activity on hGal-3; mean values of several measurements. The essentials: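 Compounds diluted in DMSO competed with biotinylated hGal-3 or hGal-1 (300-1000 ng/mL) for binding to plate-adsorbed asialofetuin for 3 h at 4° C. Bound galectin was detected with streptavidin-peroxidase (80 ng/mL, 1 h, 4° C) and ABTS substrate; IC50 reported as mean of several measurements.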
Chain of human Gal-3 (hGal-3) (P17931 whole entry): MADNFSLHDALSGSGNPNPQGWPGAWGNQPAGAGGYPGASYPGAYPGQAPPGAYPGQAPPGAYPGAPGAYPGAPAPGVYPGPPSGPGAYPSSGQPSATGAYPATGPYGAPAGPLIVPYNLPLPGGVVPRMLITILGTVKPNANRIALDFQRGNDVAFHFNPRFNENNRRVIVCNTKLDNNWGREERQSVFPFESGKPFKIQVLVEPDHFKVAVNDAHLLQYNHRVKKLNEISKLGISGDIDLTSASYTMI
Take `CO[C@@H]1[C@@H](n2cc(-c3cc(F)c(C)c(F)c3)nn2)[C@@H](O)[C@@H](CO)O[C@H]1C(=O)N(c1cc(Cl)cc(Cl)c1)[C@@H]1CC[C@H]1O` [Example 2.4.2R, (2R,3R,4S,5R,6R)-N-(3,5-dichlorophenyl)-4-(4-(3,5-difluoro-4-methylphenyl)-1H-1,2,3-triazol-1-yl)-5-hydroxy-N-((1R,2R)-2-hydroxycyclobutyl)-6-(hydroxymethyl)-3-methoxytetrahydro-2H-pyran-2-carboxamide]: the IC50 came to 134 nM.

As to `CO[C@@H]1[C@@H](n2cc(-c3cc(F)c(F)c(Cl)c3)nn2)[C@@H](O)[C@@H](CO)O[C@H]1C(=O)N(c1cc(Cl)cc(C#N)c1)[C@@H]1CC[C@H]1O` [Example 2.7.4R, (2R,3R,4S,5R,6R)-4-(4-(3-chloro-4,5-difluorophenyl)-1H-1,2,3-triazol-1-yl)-N-(3-chloro-5-cyanophenyl)-5-hydroxy-N-((1R,2R)-2-hydroxycyclobutyl)-6-(hydroxymethyl)-3-methoxytetrahydro-2H-pyran-2-carboxamide], the IC50 stood at 253 nM.

On to `CO[C@@H]1[C@@H](n2cc(-c3ccc(Br)c(F)c3F)nn2)[C@@H](O)[C@@H](CO)O[C@H]1C(=O)N(c1cc(Br)cc(C#N)c1)[C@H]1CCC[C@@H]1O` [Example 1.12.5, (2R,3R,4S,5R,6R)-4-(4-(4-bromo-2,3-difluorophenyl)-1H-1,2,3-triazol-1-yl)-N-(3-bromo-5-cyanophenyl)-5-hydroxy-N-((1S,2S)-2-hydroxycyclopentyl)-6-(hydroxymethyl)-3-methoxytetrahydro-2H-pyran-2-carboxamide], for which the IC50 was 13.6 nM.

Regarding `COc1cc(-c2cn([C@H]3[C@@H](O)[C@@H](CO)O[C@@H](C(=O)N(c4cc(Br)cc(C#N)c4)[C@H]4CCC[C@@H]4O)[C@@H]3OC)nn2)cc(F)c1F` [Example 1.3.5, (2R,3R,4S,5R,6R)-N-(3-bromo-5-cyanophenyl)-4-(4-(3,4-difluoro-5-methoxyphenyl)-1H-1,2,3-triazol-1-yl)-5-hydroxy-N-((1S,2S)-2-hydroxycyclopentyl)-6-(hydroxymethyl)-3-methoxytetrahydro-2H-pyran-2-carboxamide], the IC50 is 25.4 nM.

In the case of `CO[C@@H]1[C@@H](n2cc(-c3cc(F)c(Br)c(F)c3)nn2)[C@@H](O)[C@@H](CO)O[C@H]1C(=O)N(c1cc(Br)cc(C#N)c1)[C@H]1CC[C@@H]1O` [Example 2.6.5, (2R,3R,4S,5R,6R)-4-(4-(4-bromo-3,5-difluorophenyl)-1H-1,2,3-triazol-1-yl)-N-(3-bromo-5-cyanophenyl)-5-hydroxy-N-((1S,2S)-2-hydroxycyclobutyl)-6-(hydroxymethyl)-3-methoxytetrahydro-2H-pyran-2-carboxamide], the IC50 stood at 70.9 nM.

`COc1cc(-c2cn([C@H]3[C@@H](O)[C@@H](CO)O[C@@H](C(=O)N(c4cc(Br)cc(Br)c4)[C@@H]4CC[C@H]4O)[C@@H]3OC)nn2)cc(F)c1F` [Example 2.3.11R, (2R,3R,4S,5R,6R)-N-(3,5-dibromophenyl)-4-(4-(3,4-difluoro-5-methoxyphenyl)-1H-1,2,3-triazol-1-yl)-5-hydroxy-N-((1R,2R)-2-hydroxycyclobutyl)-6-(hydroxymethyl)-3-methoxytetrahydro-2H-pyran-2-carboxamide]: the IC50 came out at 258 nM.

`CO[C@@H]1[C@@H](n2cc(-c3ccc(Cl)c(F)c3F)nn2)[C@@H](O)[C@@H](CO)O[C@H]1C(=O)N(c1cc(Cl)cc(C#N)c1)[C@H]1CCC[C@@H]1O` [Example 1.14.4, (2R,3R,4S,5R,6R)-4-(4-(4-chloro-2,3-difluorophenyl)-1H-1,2,3-triazol-1-yl)-N-(3-chloro-5-cyanophenyl)-5-hydroxy-N-((1S,2S)-2-hydroxycyclopentyl)-6-(hydroxymethyl)-3-methoxytetrahydro-2H-pyran-2-carboxamide]: the IC50 worked out at 12.5 nM.

As to `CO[C@@H]1[C@@H](n2cc(-c3cc(F)c(F)c(F)c3)nn2)[C@@H](O)[C@@H](CO)O[C@H]1C(=O)N(c1cc(Cl)cc(Cl)c1)[C@@H]1CC[C@H]1O` [Example 2.1.2R, (2R,3R,4S,5R,6R)-N-(3,5-dichlorophenyl)-5-hydroxy-N-((1R,2R)-2-hydroxycyclobutyl)-6-(hydroxymethyl)-3-methoxy-4-(4-(3,4,5-trifluorophenyl)-1H-1,2,3-triazol-1-yl)tetrahydro-2H-pyran-2-carboxamide], the half-maximal inhibitory concentration (IC50) was 110 nM.

For the compound `CO[C@@H]1[C@@H](n2cc(-c3ccc(Cl)c(F)c3F)nn2)[C@@H](O)[C@@H](CO)O[C@H]1C(=O)N(c1cc(Br)cc(C#N)c1)[C@@H]1CCC[C@H]1O` [Example 1.14.5R, (2R,3R,4S,5R,6R)-N-(3-bromo-5-cyanophenyl)-4-(4-(4-chloro-2,3-difluorophenyl)-1H-1,2,3-triazol-1-yl)-5-hydroxy-N-((1R,2R)-2-hydroxycyclopentyl)-6-(hydroxymethyl)-3-methoxytetrahydro-2H-pyran-2-carboxamide], the concentration for half-maximal inhibition (IC50) came out at 25.5 nM.

Take `CO[C@@H]1[C@@H](n2cc(-c3cc(F)c(C)c(F)c3)nn2)[C@@H](O)[C@@H](CO)O[C@H]1C(=O)N(c1cc(Cl)cc(Cl)c1)[C@H]1CCC[C@@H]1O` [Example 1.4.2, (2R,3R,4S,5R,6R)-N-(3,5-dichlorophenyl)-4-(4-(3,5-difluoro-4-methylphenyl)-1H-1,2,3-triazol-1-yl)-5-hydroxy-N-((1S,2S)-2-hydroxycyclopentyl)-6-(hydroxymethyl)-3-methoxytetrahydro-2H-pyran-2-carboxamide]: the IC50 was found to be 44.8 nM.

As to `CO[C@@H]1[C@@H](n2cc(-c3cc(F)cc(Br)c3)nn2)[C@@H](O)[C@@H](CO)O[C@H]1C(=O)N(c1cc(F)cc(C#N)c1)[C@@H]1CCC[C@H]1O` [Example 1.10.7R, (2R,3R,4S,5R,6R)-4-(4-(3-bromo-5-fluorophenyl)-1H-1,2,3-triazol-1-yl)-N-(3-cyano-5-fluorophenyl)-5-hydroxy-N-((1R,2R)-2-hydroxycyclopentyl)-6-(hydroxymethyl)-3-methoxytetrahydro-2H-pyran-2-carboxamide], the IC50 is 1030 nM.

In the case of `CO[C@@H]1[C@@H](n2cc(-c3cc(F)c(Cl)c(Cl)c3)nn2)[C@@H](O)[C@@H](CO)O[C@H]1C(=O)N(c1cc(Cl)cc(C#N)c1)[C@H]1CCC[C@@H]1O` [Example 1.17.4, (2R,3R,4S,5R,6R)-N-(3-chloro-5-cyanophenyl)-4-(4-(3,4-dichloro-5-fluorophenyl)-1H-1,2,3-triazol-1-yl)-5-hydroxy-N-((1S,2S)-2-hydroxycyclopentyl)-6-(hydroxymethyl)-3-methoxytetrahydro-2H-pyran-2-carboxamide], the IC50 stood at 29.7 nM.

`COc1cc(C#N)cc(N(C(=O)[C@@H]2O[C@H](CO)[C@H](O)[C@H](n3cc(-c4cc(F)cc(Br)c4)nn3)[C@H]2OC)[C@@H]2CC[C@H]2O)c1` [Example 2.10.9R, (2R,3R,4S,5R,6R)-4-(4-(3-bromo-5-fluorophenyl)-1H-1,2,3-triazol-1-yl)-N-(3-cyano-5-methoxyphenyl)-5-hydroxy-N-((1R,2R)-2-hydroxycyclobutyl)-6-(hydroxymethyl)-3-methoxytetrahydro-2H-pyran-2-carboxamide]: the IC50 was found to be 976 nM.

`CO[C@@H]1[C@@H](n2cc(-c3cc(F)cc(Br)c3)nn2)[C@@H](O)[C@@H](CO)O[C@H]1C(=O)N(c1cc(Br)cc(C#N)c1)[C@@H]1CCC[C@H]1O` [Example 1.10.5R, (2R,3R,4S,5R,6R)-N-(3-bromo-5-cyanophenyl)-4-(4-(3-bromo-5-fluorophenyl)-1H-1,2,3-triazol-1-yl)-5-hydroxy-N-((1R,2R)-2-hydroxycyclopentyl)-6-(hydroxymethyl)-3-methoxytetrahydro-2H-pyran-2-carboxamide]: the IC50 worked out at 508 nM.

In the case of `CO[C@@H]1[C@@H](n2cc(-c3ccc(C#N)c(F)c3)nn2)[C@@H](O)[C@@H](CO)O[C@H]1C(=O)N(c1cc(C)cc(C#N)c1)[C@@H]1CCC[C@H]1O` [Example 1.16.8R, (2R,3R,4S,5R,6R)-4-(4-(4-cyano-3-fluorophenyl)-1H-1,2,3-triazol-1-yl)-N-(3-cyano-5-methylphenyl)-5-hydroxy-N-((1R,2R)-2-hydroxycyclopentyl)-6-(hydroxymethyl)-3-methoxytetrahydro-2H-pyran-2-carboxamide], the IC50 was 1260 nM.

With `CO[C@@H]1[C@@H](n2cc(-c3cc(F)c(F)c(Cl)c3)nn2)[C@@H](O)[C@@H](CO)O[C@H]1C(=O)N(c1cc(Cl)cc(C#N)c1)[C@@H]1CCC[C@H]1O` [Example 1.7.4R, (2R,3R,4S,5R,6R)-4-(4-(3-chloro-4,5-difluorophenyl)-1H-1,2,3-triazol-1-yl)-N-(3-chloro-5-cyanophenyl)-5-hydroxy-N-((1R,2R)-2-hydroxycyclopentyl)-6-(hydroxymethyl)-3-methoxytetrahydro-2H-pyran-2-carboxamide], the IC50 was 103 nM.

With `CO[C@@H]1[C@@H](n2cc(-c3cc(F)cc(Br)c3)nn2)[C@@H](O)[C@@H](CO)O[C@H]1C(=O)N(c1cc(C)cc(C#N)c1)[C@@H]1CC[C@H]1O` [Example 2.10.8R, (2R,3R,4S,5R,6R)-4-(4-(3-bromo-5-fluorophenyl)-1H-1,2,3-triazol-1-yl)-N-(3-cyano-5-methylphenyl)-5-hydroxy-N-((1R,2R)-2-hydroxycyclobutyl)-6-(hydroxymethyl)-3-methoxytetrahydro-2H-pyran-2-carboxamide], the IC50 is 1190 nM.

As to `CO[C@@H]1[C@@H](n2cc(-c3ccc(C#N)c(F)c3)nn2)[C@@H](O)[C@@H](CO)O[C@H]1C(=O)N(c1cc(Br)cc(C#N)c1)[C@@H]1CC[C@H]1O` [Example 2.16.5R, (2R,3R,4S,5R,6R)-N-(3-bromo-5-cyanophenyl)-4-(4-(4-cyano-3-fluorophenyl)-1H-1,2,3-triazol-1-yl)-5-hydroxy-N-((1R,2R)-2-hydroxycyclobutyl)-6-(hydroxymethyl)-3-methoxytetrahydro-2H-pyran-2-carboxamide], the IC50 was 805 nM.

For the origin of these results see patent publication US20230348442A1, “GALECTIN-3 INHIBITING 2-HYDROXYCYCLOALKANE-1-CARBAMOYL DERIVATIVES” (Idorsia Pharmaceuticals Ltd, priority 2020, published 2023).
